# Legend:
# [1] = test system: mouse model of atherosclerosis; assay: Plaque in the aortic root (aortic sinus sections, hematoxylin and eosin); assay type: in vivo; details: after 12 weeks of treatment, ApoE KO/AAV-CETP mice on Western diet (FIG. 7)
# Procedure: (§1) ApoE KO mice, male and 6 to 7 weeks of age, were transfected in vivo with AAV-CETP. Two weeks after infection, CETP expression in plasma was verified using a commercially available ELISA kit, and the mice were placed on a Western (high-fat) diet.
# (§2) The mice were sorted into several groups based on matching initial total cholesterol and verified CETP expression: 1 control group receiving a dose of dH2O. 2—a group receiving a high dose of L-carnitine (35.2 mg/mL dH2O). 3—a group receiving a low dose of L-carnitine (8.7mg/mL dH2O). 4—a group receiving a high dose of L-carnitine (35.2 mg/mL dH2O) and a dose of methimazaole (1.5 mg/mL dH2O). 5—a group receiving a dose of methimazaole (1.5 mg/mL dH2O).
# (§3) Dosing began when the mice reached 10 weeks of age and continued for 12 weeks. Drugs were administered once daily by oral gavage. The animals' body weights were measured weekly.
# [2] = test system: mouse model of atherosclerosis; assay: En face analysis of thoracic aorta lesions (Sudan IV staining); assay type: in vivo; details: for amount of plaque present in the thoracic aorta (en face analysis): after 12 weeks of treatment, ApoE KO/AAV-CETP mice on Western diet (FIG. 5)
# Procedure: as §1, §2, §3
# The effect of treatment with L-carnitine and/or methimazole on atherosclerosis progression was determined by measuring the amount of lesions present in the thoracic aorta and the sinotubular junction of the aortic root. After 12 weeks of treatment, the mice were sacrificed, and their tissues were removed for analysis. The En-face thoracic aortas were isolated and prepared for analysis by trimming present fat and fixing the aortas in formalin for 48-72 hours. For morphometric en face analysis, the aortas were laid out, pinned on black matrix, and stained with the lipid binding dye Sudan IV to determine the percentage of the thoracic aorta with lesion present. A Nikon computerized image analysis system was used to image the vessels for surface involvement.
# [3] = Plasma L-carnitine concentration by LC-MS; assay type: in vivo, mouse; details: oral gavage once daily, ApoE KO/AAV-CETP mice (FIG. 3)
# Procedure: as §1, §2, §3
# The concentrations of L-carnitine and TMAO in the plasma were measured using a liquid chromatography mass spectrometry method. A deuterium labeled L-carnitine stock standard was prepared using the weigh by difference technique. About 5 mg of d9-L-carnitine from Cambridge Isotope Laboratories were added to a 10 mL volumetric flask via a weighing funnel or weighing paper, and water:methanol=1:1 was used to dissolve the sample. A deuterium labeled TMAO stock standard was prepared by accurately weighing 25±2 mg of d9-trimethylamine N-oxide reference standard, transferring the sample into a 25 mL volumetric flask, adding about 15 mL of water:methanol=1:1, and vortexing until dissolved. The flask was then filled to volume with water:methanol=1:1
# Stock standards of deuterium labeled L-carnitine and deuterium labeled TMAO were prepared using 5 mg/10 mL water/methanol of d9-L-carnitine and 25 mg/25 mL water/methanol of d9-TMAO. These stock standards were used to prepare an internal standard by adding 200 μL of d9-L-carnitine stock standard and 10 μL of d9-TMAO into a 50 mL volumetric flask, adding acetonitrile to volume, and mixing well.
# Calibration standards were then prepared. […]
# [4] = Plasma TMAO concentration by LC-MS; assay type: in vivo, mouse; details: high dose of L-carnitine (352 mg/kg), oral gavage once daily, ApoE KO/AAV-CETP mice (FIG. 4)
# Procedure: as §1, §2, §3
# The concentrations of L-carnitine and TMAO in the plasma were measured using a liquid chromatography mass spectrometry method. A deuterium labeled L-carnitine stock standard was prepared using the weigh by difference technique. About 5 mg of d9-L-carnitine from Cambridge Isotope Laboratories were added to a 10 mL volumetric flask via a weighing funnel or weighing paper, and water:methanol=1:1 was used to dissolve the sample. […]
smiles,measurement,setting,value
C[N+](C)(C)C[C@H](O)CC(=O)[O-] [L-carnitine],amount of plaque in the aortic root,[1],small but significant reductions
same,amount of plaque present in the thoracic aorta (en face analysis),[2],no significant changes
same,concentration of L-carnitine in the plasma compared to the control vehicle,[3]; high dose of L-carnitine (352 mg/kg),significant increase
same,concentration of L-carnitine in the plasma compared to the control vehicle,[3]; low dose of L-carnitine (87 mg/kg),significant increase
same,concentration of TMAO compared to the vehicle control,[4],statistically significant increase
Cn1cc[nH]c1=S [methimazole],amount of plaque in the aortic root,[1],small but significant reductions
same,amount of plaque present in the thoracic aorta (en face analysis),[2],no significant changes
same,concentration of L-carnitine in comparison to the control vehicle,[3]; methimazole (15 mg/kg),significant decrease
"C[N+](C)(C)[O-] [TMAO, trimethylamine N-oxide]",percent lesion area of the thoracic aorta,[2]; TMAO levels higher than 0.1 ppm versus TMAO levels lower than 0.1 ppm (FIG. 6),significant decrease
